Assays:
Type in all cases: cell-based
MT-1H (Metallothionein) = assay: Immunostaining of MT-1H in human skin explants, image analysis; details: after pollutants exposure
Protocol: (§1) 59 human skin explants of an average diameter of 14 mm (±1 mm) were prepared on an abdoplasty coming from a person. The explants were kept in survival in BEM culture medium at 37° C. in a humid, 5%-CO2 atmosphere.
(§2) The tested products were topically applied on the basis of 2 μl per cm^2 and spread using a small spatula twice a day (morning and evening) on day 0, 1, 2, 3 and 4.
(§3) On D4, the explants of the batches ML and PML were placed on the 3D grid with 900 μl of HBSS and placed into the PolluBox® system.
(§4) 3 mL of the solution <<ML>> (supplemented with 150 μl/ml of NaCl 0.9%) were exposed by vaporization for 1 hour and half, as shown in the figure below.
Metallothionein (MT) is a unique heat-stable protein with a metal binding domain consisting of 20 cysteine residues. […] The immunostaining was performed using an automated slide processing system (Autostainer, Dako) and assessed by microscopical observation. […]
The images analyses were performed on all the images (9 to 12 images) of each batch using the CellD storing software (Olympus Microscopy, Matrix Optics (M)SdnBhd, Taman Mayhang, Maylasia). For each batch of explants, the percentage of the region of interest covered by the staining (stained surface percentage) was determined by image analysis. […]
Analyzed batches: T, P2, ML, P2ML (4 batches, 3 explants/batch, so 12 explants) at day 5 referred to as: TJ5, P2J5, MLJ5, P2MLJ5.

[1] = system: living human skin explants; assay: Biochemical assay of MDA (lipid peroxidation) on living human skin explants exposed to pollutants
Protocol: Product A (Table 11) was diluted in water to obtain the following products at concentrations: product P1=A at 4%, product P2=A at 2% and product P3=A at 1%.
as §1, §2, §3, §4
The MDA assay was realized with an enhanced method of the TBARs (Thiobarbituric Acid Reactive Species) assay. The MDA was assayed in HBSS medium by addition of TBARs solution (thiobarbituric acid, hydrochloric acid and tricholoroacetic acid) and placed in a water bath (80° C. for 15 minutes). A lot of substances (like glucose) which are not related with lipoperoxidation, react with thiobarbituric acid (ThioBarbituric Acid Reagents=TBARS), so to enhance the specificity of the assay, the MDA was extracted by a liquid/liquid extraction with butanol. The MDA in butanol was measured in spectrofluorimetry (excitation: 515 nm, emission: 550 nm) using a Tecan Infinite M200 Pro microplate reader. Using this assay, MDA contained in the culture medium BEMc on […] was measured for the 4 explants per batch. The MDA concentration was expressed in pmol of MDA/ml of the medium. Concerned batches: all batches on day 5, 4 explants per batch.
The average of the blank batch TJ5 was calculated (154.0 nmol/L). Then, for each explant of MLJ5, this average value was subtracted from […]. That corresponds to calculating the delta (increase) of MDA induced by ML for each explant compared to the average of the batch without ML, it is ΔML.
These average deltas were then compared to the average delta of MDA induction without treatment (ΔML).

[2] = system: human living skin explant; assay: Immunostaining of carbonylated proteins (FTZ) on human living skin explants
Protocol: (§5) human skin explants of an average diameter of 12 mm (±1 mm) were prepared on an abdoplasty coming from a person). The explants were kept in survival in BEM culture medium at 37° C. in a humid, 5%-CO2 atmosphere.
(§6) On day 0 (D0), day 1, day 2 and day 3 (3 hours before irradiation), the tested products were applied topically on surface of skin explants at the rate of 2 mg/cm^2, twice a day for D1 and D2 and once on DO and D3. […] The medium was half renewed (1 ml per well) on day 2.
(§7) On D3, the culture media of all the batches was replaced by HBSS solution (Hank's Balanced Saline Solution; 1 ml per explant). The batches “UV” were irradiated by UVA+ UVB using a UV simulator Vibert Lourmat RMX 3W with a dose of 18 J/cm2 of UVA (4 MED, minimal erythemal dose) and 0.3 J/cm2 of UVB (2 MED). The unirradiated batches were kept in HBSS in the dark. At the end of the irradiation the explants were put back in 2 mL of BEM medium.
(§8) After fixation for 24 hours in buffered formalin, the samples were dehydrated and impregnated in paraffin using a Leica PEARL dehydration automat. The samples were embedded using a Leica EG 1160 embedding station. 5-μm-thick sections were made using a Leica RM 2125 Minot-type microtome, and the sections were mounted on Superfrost® histological glass slides. The frozen samples were cut into 7-μm-thick sections using a Leica CM 3050 cryostat. Sections were then mounted on Superfrost® plus silanized glass slides. The microscopical observations were realized using a Leica DMLB or Olympus BX43 microscope. Pictures were digitized with a numeric DP72 Olympus camera with CellD storing software.
Protein carbonylation is a type of protein oxidation that can be promoted by reactive oxygen species (ROS), generated by UV exposure. FTZ marker assay was conducted by immunostaining in the living epidermis of human skin explant as follows: Carbonylated proteins were stained on frozen sections with the anti-carbonylated proteins probe (fluorescein-5-thiosemicarbazid-FTZ) (Lifetechnologies, Ref. F-121) diluted at 0.5 μM in MES-Na+ and incubated for 30 minutes in the dark and at room temperature. The staining was observed by epifluorescence and assessed by microscopical observations. Batches analyzed were T, TUV, P1UV, P2UV, P3UV at day 4 also referred to as TJ4, TUVJ4, P1UVJ4, P2UVJ4, P3UVJ4

[3] = system: human living skin explant; assay: Cell viability of human living skin explants (UV study); details: day 4
Protocol: as §5, §6, §7, §8

O=C(O)[C@@H]1CCCN1 [Combination P4, L-Proline]
effect on pollutant-induced MT-1H (MT-1H (Metallothionein)): seems to strongly reduce the effect of the pollutants
MDA, variation ΔPML vs ΔML ([1]; MDA induction by pollutants, day 5): −34% #^
reduction of the increase of MDA ([1]; after pollutant exposure (ΔPML vs ΔML)): 34%
MDA, variation PML vs ML ([1]; after pollutants exposure, day 5): −10% ns
effect on UV-induced carbonylated proteins ([2]; UV irradiated): inhibited the formation of carbonylated proteins
Carbonylated proteins (FTZ), variation vs TJ4 ([2]; non irradiated, day 4): ↔ (indicates no variation)
Cell Viability, variation vs TUVJ4 ([3]; UV irradiated): ↔ (indicates no variation)
Cell Viability, variation vs TJ4 ([3]; non irradiated): ↔ (indicates no variation)

— US20210369583A1, “COMPOSITIONS FOR PROVIDING SKIN CARE BENEFITS AND METHODS OF USE” (Danisco US Inc., priority 2018, published 2021)
